Among the data in PubChem BioAssay AID256 (DTP/NCI, 2004) are T/C values, retold here.

“And” between values parts separate entries of the source, which are not always exact repeats. Equal values may be shown once. Inconclusive results and toxic doses are left out.

This assay relates to CD2F1 mice, L1210 leukemia ip, survival T/C. Description: NCI In Vivo Anticancer Drug Screen. Data for tumor model L1210 Leukemia (intraperitoneal) in CD2F1 (CDF1) mice. As to conditions: higher = longer survival. The gist of the method: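 Transplantable tumor in mice; compound-treated vs vehicle-treated groups. Read-out = treated/control ratio of the measured endpoint.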
Where [1] appears, read: endpoint: mean survival time, dose: 100.0 mg/kg/injection, schedule: Q01DX001 (ip), vehicle: Klucel (hydroxypropylcellulose) (HPC).
Setting [2] is: endpoint: mean survival time, dose: 200.0 mg/kg/injection, schedule: Q01DX001 (ip), vehicle: Klucel (hydroxypropylcellulose) (HPC).
Where [3] appears, read: endpoint: mean survival time, dose: 100.0 mg/kg/injection, schedule: Q01DX009 (ip), vehicle: saline with Tween-80.
Setting [4] is: endpoint: mean survival time, dose: 50.0 mg/kg/injection, schedule: Q01DX001 (ip), vehicle: Klucel (hydroxypropylcellulose) (HPC).
The mark [5] stands for this setting: endpoint: mean survival time, dose: 100.0 mg/kg/injection, schedule: Q04DX003 (ip), vehicle: saline with Tween-80.
The mark [6] stands for this setting: endpoint: mean survival time, dose: 200.0 mg/kg/injection, schedule: Q04DX003 (ip), vehicle: saline with Tween-80.
[7] abbreviates: endpoint: mean survival time, dose: 400.0 mg/kg/injection, schedule: Q04DX003 (ip), vehicle: saline with Tween-80.
Setting [8] is: endpoint: mean survival time, dose: 25.0 mg/kg/injection, schedule: Q01DX009 (ip), vehicle: saline.
[9] abbreviates: endpoint: mean survival time, dose: 200.0 mg/kg/injection, schedule: Q01DX009 (ip), vehicle: saline with Tween-80.
Setting [10] is: endpoint: mean survival time, dose: 400.0 mg/kg/injection, schedule: Q01DX009 (ip), vehicle: saline with Tween-80.
The mark [11] stands for this setting: endpoint: mean survival time, dose: 6.25 mg/kg/injection, schedule: Q01DX009 (ip), vehicle: saline with Tween-80.

Regarding `CCCCCCC[CH2][Sn]1([CH2]CCCCCCC)[O]C2C(CO)OC(n3ccc(N)nc3=O)C2[O]1` (centres undefined), the T/C runs as follows: (endpoint: mean survival time, dose: 12.5 mg/kg/injection, schedule: Q01DX005 (ip), vehicle: other) 103 % of control; (endpoint: mean survival time, dose: 25.0 mg/kg/injection, schedule: Q01DX005 (ip), vehicle: other) 97 % of control; (endpoint: mean survival time, dose: 50.0 mg/kg/injection, schedule: Q01DX005 (ip), vehicle: other) 100 % of control; (endpoint: mean survival time, dose: 100.0 mg/kg/injection, schedule: Q01DX005 (ip), vehicle: other) 109 % of control.
For `CCCCS(=O)(=O)C(c1ccccc1)c1ccccc1`, the T/C is, setting by setting: under setting [1], 90 % of control; under setting [2], 96 % of control; (endpoint: mean survival time, dose: 400.0 mg/kg/injection, schedule: Q01DX001 (ip), vehicle: Klucel (hydroxypropylcellulose) (HPC)) 90 % of control.
For `C/C=C\C1OC1(C)c1cc(=O)c2c(C)cc3c(c2o1)C(=O)c1c(O)c(C2CC(C)(N(C)C)C(OC(C)=O)C(C)O2)cc(C2CC(N(C)C)C(O)C(C)O2)c1C3=O` (centres undefined), the T/C was 102 % of control (endpoint: mean survival time, dose: 0.35 mg/kg/injection, schedule: Q04DX003 (ip), vehicle: saline with Tween-80); 124 % of control (endpoint: median survival time, dose: 0.22 mg/kg/injection, schedule: Q01DX005 (ip), vehicle: saline + alcohol); 120 % of control (endpoint: median survival time, dose: 0.25 mg/kg/injection, schedule: Q01DX005 (ip), vehicle: saline + alcohol); 120 % of control (endpoint: median survival time, dose: 0.36 mg/kg/injection, schedule: Q01DX005 (ip), vehicle: saline + alcohol); 120 % of control (endpoint: median survival time, dose: 1.0 mg/kg/injection, schedule: Q01DX005 (ip), vehicle: saline + alcohol); 172 % of control (endpoint: median survival time, dose: 2.78 mg/kg/injection, schedule: Q01DX005 (ip), vehicle: saline + alcohol).
Take `CCCCCCCCC(=O)N(C)OC`: the T/C (endpoint: mean survival time, dose: 50.0 mg/kg/injection, schedule: Q01DX009 (ip), vehicle: saline with Tween-80) is 102 % of control and the T/C under setting [3] was 104 % of control.
As to `CC(C#N)N(C)C` (centres undefined), the T/C was 97 % of control (endpoint: mean survival time, dose: 10.0 mg/kg/injection, schedule: Q04DX003 (ip), vehicle: saline); 104 % of control (endpoint: mean survival time, dose: 20.0 mg/kg/injection, schedule: Q04DX003 (ip), vehicle: saline); 97 % of control (endpoint: mean survival time, dose: 40.0 mg/kg/injection, schedule: Q04DX003 (ip), vehicle: saline).
`Cc1cc(N2CCN(C)CC2)n2nc(-c3ccc(Cl)cc3)nc2n1`: the T/C runs as follows: under setting [4], 120 % of control; (endpoint: mean survival time, dose: 50.0 mg/kg/injection, schedule: Q01DX009 (ip), vehicle: Klucel (hydroxypropylcellulose) (HPC)) 100 % of control; under setting [1], 95 % of control; (endpoint: mean survival time, dose: 100.0 mg/kg/injection, schedule: Q01DX009 (ip), vehicle: Klucel (hydroxypropylcellulose) (HPC)) 99 % of control; under setting [2], 93 % of control; (endpoint: mean survival time, dose: 200.0 mg/kg/injection, schedule: Q01DX009 (ip), vehicle: Klucel (hydroxypropylcellulose) (HPC)) 97 % of control.
Take `CC1=NNC(=O)C1NNc1ccccc1` (centres undefined): the T/C runs as follows: under setting [5], 96 % of control; under setting [6], 96 % of control; under setting [7], 96 % of control.
For `Cc1ccc2c(c1)CC(C)(C)O2`, the T/C is 102 % of control under setting [4], 93 % of control under setting [1] and 102 % of control under setting [2].
Regarding `NC(CCC(=O)NC(CSC(c1ccccc1)(c1ccccc1)c1ccc(F)cc1)C(=O)NCC(=O)O)C(=O)O` (centres undefined), the T/C is, setting by setting: under setting [8], 120 % of control; (endpoint: mean survival time, dose: 200.0 mg/kg/injection, schedule: Q01DX009 (ip), vehicle: saline) 150 % of control.
Regarding `O=Cc1cc2c(cc1Br)OCO2`, the T/C was 98 % of control under setting [3]; 98 % of control under setting [5]; 97 % of control under setting [9]; 101 % of control under setting [6]; 92 % of control under setting [10]; 98 % of control under setting [7].
Consider `[N-]=[N+]=CC(=O)NCC(=O)NCCO`, for which the T/C is 101 % of control (endpoint: mean survival time, dose: 50.0 mg/kg/injection, schedule: Q01DX001 (ip), vehicle: other); 103 % of control (endpoint: mean survival time, dose: 100.0 mg/kg/injection, schedule: Q01DX001 (ip), vehicle: other); 106 % of control (endpoint: mean survival time, dose: 200.0 mg/kg/injection, schedule: Q01DX001 (ip), vehicle: other); 103 % of control (endpoint: mean survival time, dose: 200.0 mg/kg/injection, schedule: Q01DX009 (ip), vehicle: other); 109 % of control (endpoint: mean survival time, dose: 400.0 mg/kg/injection, schedule: Q01DX001 (ip), vehicle: other); 121 % of control (endpoint: mean survival time, dose: 600.0 mg/kg/injection, schedule: Q01DX009 (ip), vehicle: other). Under “endpoint: mean survival time, dose: 1000.0 mg/kg/injection, schedule: Q01DX009 (ip), vehicle: other”, the T/C was 114 % of control.
Regarding `CCCCNC(=S)N(CCCC)CCCC`, the T/C runs as follows: under setting [3], 102 % of control; under setting [9], 87 % of control.
In the case of `CCCCCCCCCCNCCC(=O)O`, the T/C was 97 % of control (endpoint: mean survival time, dose: 37.5 mg/kg/injection, schedule: Q04DX003 (ip), vehicle: saline); 94 % of control (endpoint: mean survival time, dose: 75.0 mg/kg/injection, schedule: Q04DX003 (ip), vehicle: saline); 97 % of control (endpoint: mean survival time, dose: 150.0 mg/kg/injection, schedule: Q04DX003 (ip), vehicle: saline).
Turning to `Nc1nc(N)nc(NC(=O)COc2cc(Cl)c(Cl)cc2Cl)n1`, the T/C was 100 % of control under setting [3]; 92 % of control under setting [5]; 105 % of control under setting [9]; 103 % of control under setting [10]; 88 % of control under setting [7].
On to `Oc1c(Cl)c(Cl)c(Cl)c2ccccc12`, for which the T/C is, setting by setting: under setting [5], 100 % of control; under setting [6], 97 % of control; under setting [7], 100 % of control.
Regarding `CCN(CC)C(C)COC(=O)c1ccc(N)cc1` (centres undefined), the T/C (endpoint: mean survival time, dose: 12.5 mg/kg/injection, schedule: Q04DX003 (ip), vehicle: saline) was 103 % of control; the T/C (endpoint: mean survival time, dose: 25.0 mg/kg/injection, schedule: Q04DX003 (ip), vehicle: saline) was 103 % of control; the T/C (endpoint: mean survival time, dose: 50.0 mg/kg/injection, schedule: Q04DX003 (ip), vehicle: saline) was 111 % of control.
In the case of `CC(=O)Nc1cccc(N=Cc2ccc(N(CCOS(C)(=O)=O)CCOS(C)(=O)=O)cc2C)c1`, the T/C under setting [11] was 123 % of control; the T/C (endpoint: mean survival time, dose: 8.0 mg/kg/injection, schedule: Q01DX009 (ip), vehicle: saline with Tween-80) was 118 % of control; the T/C (endpoint: mean survival time, dose: 25.0 mg/kg/injection, schedule: Q01DX009 (ip), vehicle: saline with Tween-80) is 124 % of control.
As to `C[CH2][Pb]([CH2]C)([CH2]C)[O]C(=O)c1cc(-c2ccccc2)nc2ccccc12`, the T/C is, setting by setting: (endpoint: mean survival time, dose: 1.56 mg/kg/injection, schedule: Q01DX009 (ip), vehicle: saline with Tween-80) 98 % of control; (endpoint: mean survival time, dose: 3.13 mg/kg/injection, schedule: Q01DX009 (ip), vehicle: saline with Tween-80) 98 % of control; under setting [11], 91 % of control and 104 % of control.
As to `NC(=O)c1ncn(C2OC(COP(=O)(O)O)C(O)C2O)c1N` (centres undefined), the T/C by setting is: (endpoint: mean survival time, dose: 12.5 mg/kg/injection, schedule: Q01DX005 (ip), vehicle: water) 97 % of control; (endpoint: mean survival time, dose: 25.0 mg/kg/injection, schedule: Q01DX005 (ip), vehicle: water) 96 % of control; (endpoint: mean survival time, dose: 50.0 mg/kg/injection, schedule: Q01DX005 (ip), vehicle: water) 102 % of control; (endpoint: mean survival time, dose: 100.0 mg/kg/injection, schedule: Q01DX001 (ip), vehicle: saline) 102 % of control; (endpoint: mean survival time, dose: 100.0 mg/kg/injection, schedule: Q01DX005 (ip), vehicle: water) 94 % of control; (endpoint: mean survival time, dose: 200.0 mg/kg/injection, schedule: Q01DX001 (ip), vehicle: saline) 95 % of control. The T/C reads like this: (endpoint: mean survival time, dose: 200.0 mg/kg/injection, schedule: Q01DX005 (ip), vehicle: water) 100 % of control; (endpoint: mean survival time, dose: 400.0 mg/kg/injection, schedule: Q01DX001 (ip), vehicle: saline) 101 % of control.
For `CCN(C(=O)CCl)C(C)(C)C(SSSC(c1ccc(Cl)cc1)C(C)(C)N(CC)C(=O)CCl)c1ccc(Cl)cc1` (centres undefined), the T/C is, setting by setting: (endpoint: mean survival time, dose: 12.5 mg/kg/injection, schedule: Q01DX009 (ip), vehicle: saline) 96 % of control; under setting [8], 102 % of control; (endpoint: mean survival time, dose: 50.0 mg/kg/injection, schedule: Q01DX009 (ip), vehicle: saline) 95 % of control and 106 % of control; (endpoint: mean survival time, dose: 100.0 mg/kg/injection, schedule: Q01DX009 (ip), vehicle: saline) 100 % of control.
